Results published in ChEMBL document CHEMBL1201862, “PubChem BioAssay data set” (2004).
Activity calls are given as the source filed them.

Legend:
Aminopeptidase N = molecular target: T1, Aminopeptidase N (Plasmodium falciparum FcB1/Columbia, UniProt O96935); assay: P. falciparum M1AAP inhibitors, biochemical, fluorogenic H-Leu-NHMec substrate, 1536-well (AID 1445); parameters: species or system Plasmodium falciparum 3D7, 3D7
T1 sequence (O96935 whole entry): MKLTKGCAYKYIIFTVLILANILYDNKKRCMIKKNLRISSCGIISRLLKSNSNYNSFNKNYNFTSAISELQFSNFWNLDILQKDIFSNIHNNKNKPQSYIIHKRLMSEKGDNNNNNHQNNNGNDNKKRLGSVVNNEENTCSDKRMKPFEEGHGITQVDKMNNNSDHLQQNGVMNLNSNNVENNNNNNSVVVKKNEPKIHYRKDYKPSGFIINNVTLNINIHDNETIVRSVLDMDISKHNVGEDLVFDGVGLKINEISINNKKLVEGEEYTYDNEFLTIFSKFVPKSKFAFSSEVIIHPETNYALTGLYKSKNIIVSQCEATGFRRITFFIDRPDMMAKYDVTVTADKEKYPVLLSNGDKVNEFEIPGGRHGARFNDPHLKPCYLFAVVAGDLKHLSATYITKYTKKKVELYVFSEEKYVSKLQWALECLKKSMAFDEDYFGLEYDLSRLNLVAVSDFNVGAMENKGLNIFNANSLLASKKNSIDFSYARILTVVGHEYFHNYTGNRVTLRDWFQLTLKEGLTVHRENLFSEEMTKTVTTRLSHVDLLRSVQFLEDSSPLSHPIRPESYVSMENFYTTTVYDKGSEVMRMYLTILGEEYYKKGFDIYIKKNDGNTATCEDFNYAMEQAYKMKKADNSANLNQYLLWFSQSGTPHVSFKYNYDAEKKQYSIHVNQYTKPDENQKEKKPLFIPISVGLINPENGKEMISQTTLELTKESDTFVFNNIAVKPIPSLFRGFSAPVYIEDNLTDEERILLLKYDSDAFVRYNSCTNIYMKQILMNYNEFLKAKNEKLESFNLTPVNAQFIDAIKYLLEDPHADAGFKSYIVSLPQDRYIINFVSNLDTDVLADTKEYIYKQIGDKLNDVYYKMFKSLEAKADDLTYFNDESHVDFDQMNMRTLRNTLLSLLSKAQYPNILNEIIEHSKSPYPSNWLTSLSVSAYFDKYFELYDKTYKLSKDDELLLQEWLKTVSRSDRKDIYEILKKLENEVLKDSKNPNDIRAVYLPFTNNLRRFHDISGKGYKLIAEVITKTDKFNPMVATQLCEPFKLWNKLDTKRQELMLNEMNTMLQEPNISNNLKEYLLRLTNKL

[1] = molecular target: Voltage-dependent T-type calcium channel subunit alpha-1H (Homo sapiens, UniProt O95180); assay type: functional;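 note: channel activity triggered by adding a high calcium stimulation buffer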
[2] = test system: Streptococcus sp. 'group A'; assay: growth inhibition of control SK(-) GAS strain, dose response, counter-screen for streptokinase expression inhibitor project, luminescence, kanamycin, BacTiterGlo, confirmation (AID 1900); assay type: functional, organism-based
Streptokinase A = molecular target: T2, Streptokinase A (Streptococcus pyogenes serotype M1, UniProt P10520); assay: S. pyogenes streptokinase expression inhibitors, potency, dose response, plasminogen activation absorbance, OD405 (AID 1914); assay type: functional, Streptococcus pyogenes M1 GAS;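 note: secreted streptokinase activity via plasminogen activation per viability signal from cell pellet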
T2 sequence (P10520 whole entry): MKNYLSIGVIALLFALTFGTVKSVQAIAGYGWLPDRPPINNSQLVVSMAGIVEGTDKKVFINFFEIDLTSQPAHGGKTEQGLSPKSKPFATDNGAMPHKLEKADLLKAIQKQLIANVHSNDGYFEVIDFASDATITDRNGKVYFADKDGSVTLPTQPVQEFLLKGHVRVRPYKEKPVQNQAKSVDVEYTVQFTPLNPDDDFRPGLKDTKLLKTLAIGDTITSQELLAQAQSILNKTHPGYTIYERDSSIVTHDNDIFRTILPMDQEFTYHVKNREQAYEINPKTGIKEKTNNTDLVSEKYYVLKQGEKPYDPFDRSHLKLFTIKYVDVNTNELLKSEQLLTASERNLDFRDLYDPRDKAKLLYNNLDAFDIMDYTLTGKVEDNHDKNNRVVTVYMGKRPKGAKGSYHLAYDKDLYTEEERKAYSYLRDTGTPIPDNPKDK

Streptococcus = assay: Group A Streptococcus viability loss, dose response, counter-screen for streptokinase expression inhibitor project, luminescence, BacTiterGlo (AID 1915); assay type: functional, organism-based;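 note: potency for reduction of bacterial viability or growth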
[3] = THP-1 cell cytotoxicity, dose response, cytotoxicity control for non-replicating M. tuberculosis project (AID 489025); assay type: functional
[4] = HepG2 cell cytotoxicity, dose response, cytotoxicity control for non-replicating M. tuberculosis project (AID 489018); assay type: functional; conditions: Mycobacterium tuberculosis
cells [5] = assay type: functional
[6] = NIH-3T3 fibroblast cytotoxicity, dose response, cytotoxicity control, cell-based, fluorescence, Alamar Blue, secondary assay (AID 2327); assay type: functional;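 note: NIH-3T3 mouse fibroblasts cultured with fluconazole at 8 µg/mL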
cells [7] = assay type: functional, cell-based
[8] = A Cell Based Secondary Assay To Explore Cytotoxicity of Compounds that Sensitize Mycobacterium Tuberculosis to Beta-Lactam Antibiotics.; assay type: functional
[9] = C. albicans growth with fluconazole, confirmation, fluorescence, retest (AID 2467); assay type: functional, cell-based
cells [10] = assay type: functional, cell-based; remark: listed apart in the source
[11] = molecular target: T3, Microphthalmia-associated transcription factor (Homo sapiens, UniProt O75030); assay: TRPM1 promoter luciferase signal decrease, dose response, MITF inhibitor project, cell-based, SK-MEL-5, cherry-picked, set 3 (AID 493073); assay type: functional
T3 sequence (O75030 whole entry): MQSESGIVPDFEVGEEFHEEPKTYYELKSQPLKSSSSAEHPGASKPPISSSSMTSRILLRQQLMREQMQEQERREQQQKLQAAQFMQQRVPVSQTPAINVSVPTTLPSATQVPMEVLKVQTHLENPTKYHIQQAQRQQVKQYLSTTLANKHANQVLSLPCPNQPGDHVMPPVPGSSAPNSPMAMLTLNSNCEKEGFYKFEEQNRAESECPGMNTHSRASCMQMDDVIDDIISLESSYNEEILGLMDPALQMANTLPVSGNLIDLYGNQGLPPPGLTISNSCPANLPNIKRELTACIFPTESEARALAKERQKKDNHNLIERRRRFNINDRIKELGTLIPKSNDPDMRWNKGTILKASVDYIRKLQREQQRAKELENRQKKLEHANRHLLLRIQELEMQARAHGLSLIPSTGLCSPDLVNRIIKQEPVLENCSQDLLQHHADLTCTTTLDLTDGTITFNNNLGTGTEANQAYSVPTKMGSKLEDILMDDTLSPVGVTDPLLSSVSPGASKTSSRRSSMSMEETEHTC

[12] = molecular target: T4, Endoribonuclease toxin MazF (Escherichia coli K-12, UniProt P0AE70); assay: MazF toxin RNase activators, dose response, biochemical, fluorescence, single-stranded RNA substrate, uHTS hits (AID 588481); assay type: functional
T4 sequence (P0AE70 whole entry): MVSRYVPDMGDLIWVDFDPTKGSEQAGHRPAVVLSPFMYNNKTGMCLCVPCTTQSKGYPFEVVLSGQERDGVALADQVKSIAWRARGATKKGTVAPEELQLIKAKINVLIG

[13] = molecular target: T4, Endoribonuclease toxin MazF; assay: fluorescent RNA oligo signal without MazF, dose response, counter-screen for MazEF activator project, biochemical, fluorescence, single-stranded RNase substrate (AID 588502); assay type: functional
[14] = molecular target: T5, RNA-binding protein pos-1 (Caenorhabditis elegans, UniProt G5EF15); assay: inhibitors of POS-1/mex-3 RNA binding, dose response, biochemical, fluorescence polarization (AID 1964);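 note: purified POS-1 fused to maltose binding protein made in E. coli; potency of compounds blocking POS-1 binding to fluorescent RNA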
T5 sequence (G5EF15 whole entry): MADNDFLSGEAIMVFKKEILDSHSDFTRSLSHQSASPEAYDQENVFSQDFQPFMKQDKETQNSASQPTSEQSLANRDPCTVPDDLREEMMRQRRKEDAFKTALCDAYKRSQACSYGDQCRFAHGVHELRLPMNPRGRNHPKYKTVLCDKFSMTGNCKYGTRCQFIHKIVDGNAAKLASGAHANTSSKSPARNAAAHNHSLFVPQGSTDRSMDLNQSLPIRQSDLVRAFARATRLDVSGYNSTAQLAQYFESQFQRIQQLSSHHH

[15] = Luminescence Cell-Based Dose Confirmation HTS to Identify Activators of 5'UTR Stem-Loop Driven Alpha-Synuclein mRNA Translation in H4 Neuroglioblastoma Cells. [Related pubchem assays: 1829 (Project Summary), 1814 (Primary HTS)]; assay type: functional
[16] = Luminescence Cell-Based Dose Response HTS to Identify Activators of Luciferase Translation or Activity in H4 […] Cells. [Related pubchem assays: 1829 (Project Summary), 1814 (Primary HTS)]; assay type: functional
H4 = assay: Luminescence Cell-Based Dose Response HTS to Identify Activators of 5'UTR Stem-Loop Driven Prion Protein mRNA Translation in H4 Neuroglioblastoma Cells. [Related pubchem assays: 1829 (Project Summary), 1814 (Primary HTS)]; assay type: functional; conditions: Homo sapiens
[17] = molecular target: T6, Zinc finger protein mex-5 (Caenorhabditis elegans, UniProt Q9XUB2); assay: MEX-5/TCR-2 RNA interaction inhibitors, dose response, biochemical, C. elegans, fluorescence polarization (AID 1960)
T6 sequence (Q9XUB2 whole entry): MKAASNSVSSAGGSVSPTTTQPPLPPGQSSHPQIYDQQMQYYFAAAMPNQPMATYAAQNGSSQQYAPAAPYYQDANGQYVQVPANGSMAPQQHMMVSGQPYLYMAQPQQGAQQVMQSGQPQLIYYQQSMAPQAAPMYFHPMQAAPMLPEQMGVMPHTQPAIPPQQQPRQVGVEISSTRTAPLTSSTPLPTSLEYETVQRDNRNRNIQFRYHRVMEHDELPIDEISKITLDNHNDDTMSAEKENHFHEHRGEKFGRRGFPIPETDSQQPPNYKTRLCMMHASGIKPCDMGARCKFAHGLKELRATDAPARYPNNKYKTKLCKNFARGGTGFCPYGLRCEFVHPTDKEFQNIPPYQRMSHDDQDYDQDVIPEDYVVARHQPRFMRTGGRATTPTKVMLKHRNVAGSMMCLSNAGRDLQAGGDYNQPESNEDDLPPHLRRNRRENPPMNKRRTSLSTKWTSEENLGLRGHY

[18] = inhibitors of intracellular T. cruzi replication, confirmation, NIH3T3 host cells, beta-gal luminescence (AID 2044); assay type: functional, cell-based;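 note: intracellular parasites grown in NIH/3T3 mouse fibroblasts as host cells; luminescent beta-galactosidase reporter signal from transgenic T. cruzi replicating inside host cells; inhibitors lower the luminescence signal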
[19] = cytotoxicity toward NIH3T3 fibroblasts, dose response, counter-screen, cell-based, ATP luminescence, mouse fibroblasts (AID 2010); assay type: functional;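 note: cells exposed to compound for about 90 hours before reading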
cells [20] = assay: cells
[21] = microbe, parasite or virus in culture; assay type: functional; conditions: Mycobacterium tuberculosis
Cytochrome P450 2D6 = Cytochrome P450 2D6 (Homo sapiens, UniProt P10635);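 note: CYP2D6 member of a cytochrome P450 panel assay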
Cytochrome P450 2C9 = Cytochrome P450 2C9 (Homo sapiens, UniProt P11712)
Sequence of Cytochrome P450 2C9 (P11712 whole entry): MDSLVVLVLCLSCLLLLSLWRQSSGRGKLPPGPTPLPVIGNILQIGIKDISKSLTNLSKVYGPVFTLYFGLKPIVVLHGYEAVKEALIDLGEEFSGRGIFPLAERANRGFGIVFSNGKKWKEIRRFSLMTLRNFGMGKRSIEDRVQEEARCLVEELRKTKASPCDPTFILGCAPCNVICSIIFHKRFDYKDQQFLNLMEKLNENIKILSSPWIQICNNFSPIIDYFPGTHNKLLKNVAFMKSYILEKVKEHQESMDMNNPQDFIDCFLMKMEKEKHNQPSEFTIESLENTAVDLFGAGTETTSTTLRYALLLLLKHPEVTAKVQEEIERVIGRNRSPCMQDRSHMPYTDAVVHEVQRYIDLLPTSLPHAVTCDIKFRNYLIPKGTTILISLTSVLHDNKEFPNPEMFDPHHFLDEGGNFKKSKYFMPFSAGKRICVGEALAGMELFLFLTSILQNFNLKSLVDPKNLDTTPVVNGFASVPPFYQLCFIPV

Sequence of Voltage-dependent T-type calcium channel subunit alpha-1H (O95180 whole entry): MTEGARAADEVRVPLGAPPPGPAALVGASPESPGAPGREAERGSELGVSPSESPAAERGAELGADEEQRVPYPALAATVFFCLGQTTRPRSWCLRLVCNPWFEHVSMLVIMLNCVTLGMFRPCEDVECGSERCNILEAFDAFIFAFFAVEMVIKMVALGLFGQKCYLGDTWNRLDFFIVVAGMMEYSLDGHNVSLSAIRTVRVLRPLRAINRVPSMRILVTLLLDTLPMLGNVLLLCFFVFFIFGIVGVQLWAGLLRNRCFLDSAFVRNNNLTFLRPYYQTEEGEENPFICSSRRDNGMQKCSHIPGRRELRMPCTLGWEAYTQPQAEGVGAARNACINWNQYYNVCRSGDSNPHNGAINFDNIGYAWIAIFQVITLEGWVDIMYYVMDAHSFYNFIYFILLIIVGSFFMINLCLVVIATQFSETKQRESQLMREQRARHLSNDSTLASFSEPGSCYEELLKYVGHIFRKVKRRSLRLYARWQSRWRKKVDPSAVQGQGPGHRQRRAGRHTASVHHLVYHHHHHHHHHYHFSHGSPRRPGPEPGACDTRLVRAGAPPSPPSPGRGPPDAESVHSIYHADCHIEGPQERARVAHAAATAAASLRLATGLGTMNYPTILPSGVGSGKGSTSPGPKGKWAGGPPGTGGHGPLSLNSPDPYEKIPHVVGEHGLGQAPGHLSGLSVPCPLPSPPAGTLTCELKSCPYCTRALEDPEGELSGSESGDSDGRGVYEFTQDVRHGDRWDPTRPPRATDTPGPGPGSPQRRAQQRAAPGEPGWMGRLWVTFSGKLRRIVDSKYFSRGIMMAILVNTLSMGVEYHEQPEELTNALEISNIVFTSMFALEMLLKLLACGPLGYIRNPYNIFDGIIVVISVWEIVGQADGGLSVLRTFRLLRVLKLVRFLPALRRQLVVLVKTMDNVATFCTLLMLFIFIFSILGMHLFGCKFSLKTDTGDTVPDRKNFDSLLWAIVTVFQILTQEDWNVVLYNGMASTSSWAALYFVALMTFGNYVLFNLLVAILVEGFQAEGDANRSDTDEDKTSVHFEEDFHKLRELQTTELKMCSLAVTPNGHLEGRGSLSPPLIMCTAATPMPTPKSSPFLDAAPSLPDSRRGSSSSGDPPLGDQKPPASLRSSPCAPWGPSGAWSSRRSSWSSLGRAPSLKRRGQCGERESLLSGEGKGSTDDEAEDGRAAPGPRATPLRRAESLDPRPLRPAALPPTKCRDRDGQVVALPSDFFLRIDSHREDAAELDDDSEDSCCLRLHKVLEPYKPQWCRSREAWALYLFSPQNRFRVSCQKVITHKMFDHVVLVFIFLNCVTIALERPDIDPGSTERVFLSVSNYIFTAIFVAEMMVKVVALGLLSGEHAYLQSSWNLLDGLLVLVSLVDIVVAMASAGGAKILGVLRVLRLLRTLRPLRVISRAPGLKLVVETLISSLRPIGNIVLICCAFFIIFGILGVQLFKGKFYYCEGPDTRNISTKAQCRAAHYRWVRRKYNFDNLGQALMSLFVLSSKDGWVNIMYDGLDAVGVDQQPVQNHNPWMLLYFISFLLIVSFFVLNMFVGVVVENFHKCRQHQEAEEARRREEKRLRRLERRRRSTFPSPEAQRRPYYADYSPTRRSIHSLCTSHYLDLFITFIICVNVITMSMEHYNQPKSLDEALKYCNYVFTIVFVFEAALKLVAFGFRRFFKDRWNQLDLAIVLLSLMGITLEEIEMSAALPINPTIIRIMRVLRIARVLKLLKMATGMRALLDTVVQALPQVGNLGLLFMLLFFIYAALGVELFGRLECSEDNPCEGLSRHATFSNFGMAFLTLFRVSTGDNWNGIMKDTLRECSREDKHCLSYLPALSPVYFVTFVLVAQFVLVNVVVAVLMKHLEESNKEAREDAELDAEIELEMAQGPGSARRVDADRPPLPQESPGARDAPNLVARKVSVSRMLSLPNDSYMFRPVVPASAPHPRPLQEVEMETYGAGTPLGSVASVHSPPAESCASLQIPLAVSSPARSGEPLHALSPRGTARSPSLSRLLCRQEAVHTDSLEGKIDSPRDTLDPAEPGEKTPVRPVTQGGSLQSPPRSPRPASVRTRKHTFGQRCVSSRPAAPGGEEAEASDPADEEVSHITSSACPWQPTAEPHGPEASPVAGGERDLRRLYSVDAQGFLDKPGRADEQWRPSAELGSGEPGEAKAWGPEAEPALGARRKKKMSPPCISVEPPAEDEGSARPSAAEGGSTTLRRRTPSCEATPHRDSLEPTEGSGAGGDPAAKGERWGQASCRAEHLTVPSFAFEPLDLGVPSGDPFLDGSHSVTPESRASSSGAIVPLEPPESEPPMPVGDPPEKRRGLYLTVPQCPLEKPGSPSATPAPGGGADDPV
Sequence of Cytochrome P450 2D6 (P10635 whole entry): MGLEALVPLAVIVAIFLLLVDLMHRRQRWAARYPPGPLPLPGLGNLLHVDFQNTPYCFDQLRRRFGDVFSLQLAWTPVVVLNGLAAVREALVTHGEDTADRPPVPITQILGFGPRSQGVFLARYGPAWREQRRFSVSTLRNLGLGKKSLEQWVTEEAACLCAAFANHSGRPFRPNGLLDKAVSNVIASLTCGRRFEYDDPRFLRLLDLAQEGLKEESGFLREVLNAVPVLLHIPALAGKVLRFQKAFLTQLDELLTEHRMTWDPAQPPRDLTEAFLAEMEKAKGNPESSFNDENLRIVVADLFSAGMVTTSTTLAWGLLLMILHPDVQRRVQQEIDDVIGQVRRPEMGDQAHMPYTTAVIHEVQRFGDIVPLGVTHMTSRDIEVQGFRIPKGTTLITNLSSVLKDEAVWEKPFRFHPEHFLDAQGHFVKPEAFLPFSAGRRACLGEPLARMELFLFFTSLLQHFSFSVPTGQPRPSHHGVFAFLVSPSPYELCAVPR

CCc1nnc(NS(=O)(=O)c2ccc(NC(=S)NC(=O)c3ccc(OC)cc3)cc2)s1
IC50 (Aminopeptidase N): 60.5 µM (active)

O=C(CCCc1c[nH]c2ccccc12)NCc1ccc2c(c1)OCO2
EC50 [1]: 2.31 µM (active)

O=C(N/N=C/c1ccc([N+](=O)[O-])o1)c1ccc(NS(=O)(=O)c2cccs2)cc1
EC50 [2]: 1.24 µM (active)
EC50 (Streptokinase A): > 150 µM (not active)
EC50 (Streptococcus): 6.83 µM (active)
CC50 [3]: 15.9 µM (active)
CC50 [4]: 12.9 µM (active)
IC50 (cells [5]): 7.09 µM (active)

O=C(CSCC(=O)Nc1ccccc1)N/N=C/c1c(O)ccc2ccccc12
EC50 [6]: > 160 µM (inactive)
EC50 (cells [7]): 9.25 µM (active)
CC50 [8]: 6.22 µM (active)
EC50 [9]: > 38 µM (not active)
EC50 (cells [10]): > 350 µM (not active)
AC50 [11]: 3.34 µM (active)
EC50 [12]: > 99 µM (inactive)
EC50 [13]: > 99 µM (inactive)

Cc1nn(-c2ccccc2)c(Cl)c1/C=C1\SC(=S)NC1=O
IC50 (Aminopeptidase N): 46.8 µM (active)

Cc1ccc(-n2nnnc2-c2cnc(N3CCCC3)nc2C(F)(F)F)cc1
EC50 [1]: 8.9 µM (active)

CCN1C(=O)/C(=C2/C=Cc3ccccc3N2C)OC1=S
EC50 [14]: 55.8 µM (active)
EC50 [15]: 2.39 µM (active)
EC50 [16]: 4.49 µM (active)
EC50 (H4): 39.4 µM (active)
EC50 [17]: 3.94 µM (inconclusive)
EC50 [12]: > 99 µM (inactive)
EC50 [13]: > 99 µM (inactive)

Cc1ccc(CSc2nnc(SCC(=O)N/N=C/c3ccccc3OCC(=O)O)s2)cc1
IC50 (Aminopeptidase N): 30.6 µM (active)

Nc1nonc1C(=O)N/N=C/c1ccc(-c2ccc(Cl)c(C(=O)O)c2)o1
IC50 (Aminopeptidase N): 43.8 µM (active)

O=C(Cn1nnc2ccccc2c1=O)N[C@@H](Cc1c[nH]c2ccccc12)C(=O)O
IC50 (Aminopeptidase N): 71.6 µM (active)

COc1ccccc1OCc1nc(Cc2ccc(Cl)cc2)no1
EC50 [1]: 7.9 µM (active)

O=C(c1ccc([N+](=O)[O-])o1)N1CCc2ccccc2C1
EC50 [18]: < 0.1 µM (active)
EC50 [19]: > 60 µM (not active)
IC50 (cells [5]): 0.45 µM (active)
EC50 (cells [20]): 0.042 µM (active)

CCOc1cccc(CN2CCCC(N3CCc4cc(OC)c(OC)cc4C3)C2)c1O (stereo unspecified)
EC50 [18]: < 0.1 µM (active)
EC50 [19]: > 60 µM (not active)
EC50 (cells [20]): 0.084 µM (active)

CC1CCN(S(=O)(=O)c2ccc(NC(=O)Cc3ccccc3)cc2)CC1
EC50 [1]: 5.25 µM (active)

O=C(NCC1CCN(c2ccc(S(=O)(=O)N3CCOCC3)cc2)CC1)c1ccc(Cl)cc1
CC50 [21]: > 40 µM (active)
EC50 [1]: 21.2 µM (active)
CC50 [3]: > 40 µM (active)
CC50 [4]: > 20 µM (active)
IC50 (cells [5]): 31.3 µM (active)

O=C(CCCn1cnc([N+](=O)[O-])n1)Nc1ccc(Cl)c(Cl)c1
EC50 [18]: < 0.1 µM (active)
EC50 [19]: > 60 µM (not active)
AC50 (Cytochrome P450 2D6): 15.8 µM (inconclusive)
AC50 (Cytochrome P450 2C9): 15.8 µM (inconclusive)
EC50 (cells [20]): 0.054 µM (active)

CC(C)Oc1cccc(C(=O)C2CCCN(Cc3ccc(Oc4ncccn4)cc3)C2)c1 (stereo unspecified)
EC50 [18]: < 0.1 µM (active)
EC50 [19]: > 60 µM (not active)
EC50 (cells [20]): 0.081 µM (active)

Cc1ccc(-c2nn(C)c(=O)c3ccccc23)cc1CNC(=O)c1ccco1
IC50 (Aminopeptidase N): 21.1 µM (active)
